Results as given in ChEMBL document CHEMBL1125889, “8-(Dicyclopropylmethyl)-1,3-dipropylxanthine: a potent and selective adenosine A1 antagonist with renal protective and diuretic activities” (J Med Chem, 1991).
pKi: −log10 of the molar value.

Experiments:
[1] = target: T1, Adenosine A2 receptor (Rattus norvegicus, UniProt P29276+P30543); format: cell membranes, Membrane
[2] = target: T2, Adenosine receptor A1 (Cavia porcellus, UniProt P47745); experiment: Binding affinity carried out with [3H]cyclohexyladenosine in guinea pig forebrain membranes against adenosine A1 receptor; format: cell membranes, Brain membranes
T2 sequence (P47745 whole entry): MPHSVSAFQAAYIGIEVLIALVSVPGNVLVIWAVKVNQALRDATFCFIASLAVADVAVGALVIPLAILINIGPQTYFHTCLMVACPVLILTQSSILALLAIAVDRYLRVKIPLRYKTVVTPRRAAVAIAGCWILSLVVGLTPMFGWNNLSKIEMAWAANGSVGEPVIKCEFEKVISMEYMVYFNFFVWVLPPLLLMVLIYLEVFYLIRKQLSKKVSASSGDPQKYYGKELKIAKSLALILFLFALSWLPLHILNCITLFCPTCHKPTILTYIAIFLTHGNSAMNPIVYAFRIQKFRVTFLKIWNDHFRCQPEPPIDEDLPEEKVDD

[3] = species: Cavia porcellus; experiment: Ki ratio evaluated as the Ki of A2 to that A1 receptor values.
[4] = target: T1, Adenosine A2 receptor; format: cell membranes, Membrane; remark: listed apart in the source
[5] = test system: Rattus norvegicus; experiment: Compound was evaluated for Serum creatinine concentration in glycerol injected rats treated with 1 mg/kg administered intraperitoneally; format: functional, organism-based; design: dose 1 mg/kg
[6] = species: Rattus norvegicus; conditions: in vivo, po, 6 h
Description: Compound administered at a dose of 6.25 mg/25 mL/kg orally to rats, urine collected for 6 hr and measured for K+ excretion.

[7] = species: Rattus norvegicus; conditions: in vivo, po, 6 h; remark: listed apart in the source
Description: Compound administered at a dose of 6.25 mg/25 mL/kg orally to rats, urine collected for 6 hr and measured for Na+ excretion.

[8] = species: Rattus norvegicus; conditions: in vivo, po, 6 h; remark: listed apart in the source
Description: Compound administered at a dose of 6.25 mg/25 mL/kg orally to rats, urine collected for 6 hr and measured for urine volume.

[9] = test system: Rattus norvegicus; experiment: Compound was evaluated for Serum creatinine concentration in glycerol injected rats treated with 10 mg/kg administered intraperitoneally.; format: functional, organism-based; design: dose 10 mg/kg
[10] = target: T2, Adenosine receptor A1
Description: Inhibition of [3H]cyclohexyladenosine binding to guinea pig forebrain membranes Adenosine A1 receptor

SMILES | Ki [1] | pKi [2] | Ki ratio [3] | other results
CCCn1c(=O)[nH]c(=O)c2[nH]c(C(C3CC3)C3CC3)nc21 | > 100000 nM | 5.89 | > 77 | –
CCCn1c(=O)c2nc(C(C3CCCCC3)C3CCCCC3)[nH]c2n(CCC)c1=O | > 100000 nM | < 4.00 | – | –
CC(C)Cn1c(=O)n(C)c(=O)c2[nH]c(C(C3CC3)C3CC3)nc21 | – | 7.92 | 34 | –
CCCn1c(=O)c2nc(C(C)N)[nH]c2n(CCC)c1=O (centres undefined) | > 100000 nM | 5.52 | > 33 | –
CCn1c(=O)c2nc(C(C3CC3)C3CC3)[nH]c2n(CC)c1=O | – | – | 53 | –
CCCn1c(=O)c2nc(C(C3CC3)C3CC3)[nH]c2n(CCC)c1=O | – | – | 140 | Serum creatinine conc [5]: 2.99 mg/dL
CCCn1c(=O)c2[nH]c(C3CCCC3)nc2n(CCC)c1=O [1,3-DIPROPYL-8-CYCLOPENTYLXANTHINE [DPCPX]] | – | – | – | Serum creatinine conc [5]: 3.75 mg/dL; K+ excretion [6]: 1.26 ml 6hr-1 100g-1; Na+ excretion [7]: 1.98 ml 6hr-1 100g-1; Urine volume [8]: 1.87 ml 6hr-1 100g-1
Cn1c(=O)c2[nH]cnc2n(C)c1=O.O [THEOPHYLLINE] | – | – | – | Serum creatinine conc [9]: 5.32 mg/dL; K+ excretion [6]: 1.16 ml 6hr-1 100g-1; Na+ excretion [7]: 1.52 ml 6hr-1 100g-1; Urine volume [8]: 1.42 ml 6hr-1 100g-1
CCCn1c(=O)c2c(nc(C(C3CC3)C3CC3)n2CCC)n(CCC)c1=O | – | 4.89 | 0.48 | –
Cn1c(=O)c2nc(C(C3CC3)C3CC3)[nH]c2n(C)c1=O | – | 7.09 | 33 | –
CCCn1c(=O)c2c(nc(C(C3CC3)C3CC3)n2C)n(CCC)c1=O | – | 5.13 | 3.9 | –
CCCn1c(=O)c2nc(C(C3CC3C)C3CC3C)[nH]c2n(CCC)c1=O (centres undefined) | 1000 nM | – | 100 | –
CCn1c(=O)c2[nH]c(C(C3CC3)C3CC3)nc2n(CC)c1=O | – | 7.89 | – | –
CCCn1c(=O)c2c(nc(C(C3CC3)C3CC3)n2CC)n(CCC)c1=O | – | 5.80 | 8.8 | –
CCCn1c(=O)c2nc(C(C)CC)[nH]c2n(CCC)c1=O (centres undefined) | 1200 nM | – | 48 | –
CCCn1c(=O)c2nc[nH]c2n(CCC)c1=O | – | – | – | pKi [10]: 5.92
NS(=O)(=O)c1cc(C(=O)O)c(NCc2ccco2)cc1Cl | – | – | – | Serum creatinine conc [9]: 4.17 mg/dL
CCCC(CCC)c1nc2c(=O)n(CCC)c(=O)n(CCC)c2[nH]1 | 590 nM | – | 7.6 | –
Cn1c(=O)c2c(ncn2C)n(C)c1=O [CAFFEINE] | – | – | – | pKi [10]: < 4.00; K+ excretion [6]: 0.99 ml 6hr-1 100g-1; K+ excretion [7]: 1.1 ml 6hr-1 100g-1; Urine volume [8]: 0.92 ml 6hr-1 100g-1
CCCCn1c(=O)c2nc(C(C3CC3)C3CC3)[nH]c2n(CCCC)c1=O | – | 8.26 | 80 | –
CCCn1c(=O)c2nc(C(CC)CC)[nH]c2n(CCC)c1=O | 570 nM | – | 30 | –

Now from value to molecule, other results behind:

Ki [1] | pKi [2] | Ki ratio [3] | SMILES | other results
– | 8.01 | – | CCCn1c(=O)c2[nH]c(C(C3CC3C)C3CC3C)nc2n(CCC)c1=O (centres undefined) | –
1800 nM | 6.82 | 12 | CCCn1c(=O)c2nc(C(c3ccccc3)C3CC3)[nH]c2n(CCC)c1=O (centres undefined) | –
– | – | > 48 | CCCn1c(=O)c2nc(C(c3ccccc3)c3ccccc3)[nH]c2n(CCC)c1=O | Ki [4]: > 100000 nM
– | 6.60 | – | CCCn1c(=O)c2[nH]c(C(c3ccc(F)cc3)C3CC3)nc2n(CCC)c1=O (centres undefined) | –
– | 7.60 | – | CCCn1c(=O)c2[nH]c(C(C)CC)nc2n(CCC)c1=O (centres undefined) | –
– | 6.66 | – | CCCn1c(=O)c2[nH]c(C(C)Cc3ccc(OC)cc3)nc2n(CCC)c1=O (centres undefined) | –
580 nM | – | 2.6 | CCCn1c(=O)c2nc(C(C)Cc3ccc(OC)cc3)[nH]c2n(CCC)c1=O (centres undefined) | –
– | 6.40 | – | CCCn1c(=O)c2[nH]c(C(c3ccccc3)C3CCCC3)nc2n(CCC)c1=O (centres undefined) | –
480 nM | – | 1.8 | CCCn1c(=O)c2nc(C(C)Cc3ccccc3)[nH]c2n(CCC)c1=O (centres undefined) | –
1100 nM | 7.00 | 11 | CCCn1c(=O)c2nc(C(CC)c3ccccc3)[nH]c2n(CCC)c1=O (centres undefined) | –
– | 5.68 | – | CCCn1c(=O)c2[nH]c(C(c3ccccc3)c3ccccc3)nc2n(CCC)c1=O | –
1400 nM | – | 5.6 | CCCn1c(=O)c2nc(C(c3ccc(F)cc3)C3CC3)[nH]c2n(CCC)c1=O (centres undefined) | –
– | 7.11 | – | CCCC(CCC)c1nc2c([nH]1)c(=O)n(CCC)c(=O)n2CCC | –
– | 6.60 | 8.8 | CCCn1c(=O)c2nc(C(c3ccc(OC)cc3)C3CC3)[nH]c2n(CCC)c1=O (centres undefined) | Ki [4]: 2200 nM
1500 nM | 7.31 | 31 | CCCn1c(=O)c2nc(C(C)C)[nH]c2n(CCC)c1=O | –
– | 6.59 | – | CCCn1c(=O)c2[nH]c(C(C)Cc3ccccc3)nc2n(CCC)c1=O (centres undefined) | –
4000 nM | – | 10 | CCCn1c(=O)c2nc(C(c3ccccc3)C3CCCC3)[nH]c2n(CCC)c1=O (centres undefined) | –
3300 nM | 6.05 | 3.7 | CCCn1c(=O)c2nc(C(CC)Oc3ccccc3)[nH]c2n(CCC)c1=O (centres undefined) | –
